# Where “and” joins values, the source holds several entries; their conditions need not be identical. Equal entries are not always repeated. Toxic doses and inconclusive results are not listed.
# System: L1210 leukemia iv in BDF1 mice, survival T/C
# Experiment: NCI In Vivo Anticancer Drug Screen. Data for tumor model L1210 Leukemia (intravenous) in B6D2F1 (BDF1) mice
# Details: endpoint: mean survival time, higher = longer survival
# Method: The antitumor activity of compounds was measured in mice bearing transplantable tumors. Survival or tumor size were measured and the results are expressed as the measurement made in the treated group (T) divided by the measurement made in the vehicle treated control group (C). The tumor model used in this assay is L1210 Leukemia (intravenous) in B6D2F1 (BDF1) mice
structure (smiles),measurement,setting,value
CCOC(=O)C1CCC(NC(=O)N(CCCl)N=O)CC1 (stereo not given),T/C,"dose: 4.0 mg/kg/injection, schedule: Q01DX001 (ip), vehicle: other",113 % of control and 100 % of control
same,T/C,"dose: 8.0 mg/kg/injection, schedule: Q01DX001 (ip), vehicle: other",116 % of control
same,T/C,"dose: 8.6 mg/kg/injection, schedule: Q04DX004 (ip), vehicle: gum acacia",274 % of control and 275 % of control
same,T/C,"dose: 13.0 mg/kg/injection, schedule: Q04DX004 (ip), vehicle: gum acacia",254 % of control
same,T/C,"dose: 16.0 mg/kg/injection, schedule: Q01DX001 (ip), vehicle: other",162 % of control and 193 % of control
same,T/C,"dose: 20.0 mg/kg/injection, schedule: Q04DX004 (ip), vehicle: gum acacia",837 % of control
same,T/C,"dose: 30.0 mg/kg/injection, schedule: Q04DX004 (ip), vehicle: gum acacia",1010 % of control
same,T/C,"dose: 33.0 mg/kg/injection, schedule: Q01DX001 (ip), vehicle: other",465 % of control and 302 % of control
same,T/C,"dose: 66.0 mg/kg/injection, schedule: Q01DX001 (ip), vehicle: other",663 % of control and 330 % of control
O=C1N[C@@H]([C@H]2CC[C@H](Cl)CN2)C(=O)N[C@H]1[C@H]1CC[C@H](Cl)CN1,T/C,"dose: 4.4 mg/kg/injection, schedule: Q01DX001 (ip), vehicle: saline",186 % of control
same,T/C,"dose: 6.6 mg/kg/injection, schedule: Q01DX001 (ip), vehicle: saline",202 % of control
same,T/C,"dose: 10.0 mg/kg/injection, schedule: Q01DX001 (ip), vehicle: saline",227 % of control
same,T/C,"dose: 15.0 mg/kg/injection, schedule: Q01DX001 (ip), vehicle: saline",163 % of control
Nc1n[nH]c(N)n1,T/C,"dose: 100.0 mg/kg/injection, schedule: Q03HX024 (ip), vehicle: saline",104 % of control and 91 % of control and 100 % of control
same,T/C,"dose: 150.0 mg/kg/injection, schedule: Q03HX024 (ip), vehicle: saline",103 % of control (2×) and 104 % of control
same,T/C,"dose: 225.0 mg/kg/injection, schedule: Q03HX024 (ip), vehicle: saline",112 % of control and 116 % of control
same,T/C,"dose: 335.0 mg/kg/injection, schedule: Q03HX024 (ip), vehicle: saline",153 % of control and 159 % of control (2×)
same,T/C,"dose: 500.0 mg/kg/injection, schedule: Q03HX024 (ip), vehicle: saline",201 % of control and 215 % of control and 257 % of control
same,T/C,"dose: 4000.0 mg/kg/injection, schedule: Q01DX001 (ip), vehicle: saline",120 % of control
Nc1ccn(C2OC(COC(=O)C34CC5CC(CC(C5)C3)C4)C(O)C2O)c(=O)n1 (stereo not given),T/C,"dose: 100.0 mg/kg/injection, schedule: Q01DX001 (ip), vehicle: other",150 % of control and 178 % of control
same,T/C,"dose: 200.0 mg/kg/injection, schedule: Q01DX001 (ip), vehicle: other",189 % of control and 215 % of control
same,T/C,"dose: 400.0 mg/kg/injection, schedule: Q01DX001 (ip), vehicle: other",464 % of control and 281 % of control
O=NN(CCCl)C(=O)NC1CCCC1,T/C,"dose: 9.0 mg/kg/injection, schedule: Q01DX001 (ip), vehicle: saline",106 % of control and 100 % of control
same,T/C,"dose: 19.0 mg/kg/injection, schedule: Q01DX001 (ip), vehicle: saline",114 % of control and 119 % of control
same,T/C,"dose: 38.0 mg/kg/injection, schedule: Q01DX001 (ip), vehicle: saline",160 % of control and 182 % of control
same,T/C,"dose: 75.0 mg/kg/injection, schedule: Q01DX001 (ip), vehicle: saline",174 % of control and 202 % of control
same,T/C,"dose: 150.0 mg/kg/injection, schedule: Q01DX001 (ip), vehicle: saline",212 % of control and 265 % of control
CC(CN1CC(=O)NC(=O)C1)N1CC(=O)NC(=O)C1 (stereo not given),T/C,"dose: 108.0 mg/kg/injection, schedule: Q04DX003 (ip), vehicle: Klucel (hydroxypropylcellulose) (HPC)",165 % of control
same,T/C,"dose: 180.0 mg/kg/injection, schedule: Q04DX003 (ip), vehicle: Klucel (hydroxypropylcellulose) (HPC)",176 % of control
same,T/C,"dose: 300.0 mg/kg/injection, schedule: Q04DX003 (ip), vehicle: Klucel (hydroxypropylcellulose) (HPC)",191 % of control
